# Experimental data reported in ChEMBL document CHEMBL1147579, “Design, synthesis and evaluation of novel 1,4-naphthoquinone derivatives as antifungal and anticancer agents” (2004).
# Legend:
# Candida albicans = test: Antifungal activity against Candida albicans; format: functional
# Microsporum canis = test: Antifungal activity against Microsporum canis; format: functional
# Aspergillus fumigatus = test: Antifungal activity against Aspergillus fumigatus; format: functional
# [1] = Antifungal activity against Trichophyton mentagrophytes; format: functional, Trichophyton mentagraphytes; conditions: Trichophyton benhamiae
# Cryptococcus neoformans [2] = test: Antifungal activity against Cryptococcus neoformans; format: functional
# Tolypocladium inflatum = test: Antifungal activity against Sporotrichum schenckii; format: functional; conditions: sporotrichum scenckii
# Cryptococcus neoformans [3] = test: Antifungal activity against C. neoformans; No activity; format: functional
# Sporothrix schenckii = test: Antifungal activity against Sporotrichum schenckii
# Rattus norvegicus [4] = test: Anticancer activity against Walker 256 carcinoma in rat after administration of 10 mg/kg; Activity expressed as % T/C (Active); format: functional
# Rattus norvegicus [5] = test: Anticancer activity against Walker 256 carcinoma cells in rat after administration of 10 mg/kg; Activity expressed as survivors out of 4 rats (Active); format: functional
Molecule,MIC (Candida albicans) [µg/mL],MIC (Microsporum canis) [µg/mL],MIC (Aspergillus fumigatus) [µg/mL],MIC [1] [µg/mL],MIC (Cryptococcus neoformans [2]) [µg/mL],MIC (Tolypocladium inflatum) [µg/mL],MIC (Cryptococcus neoformans [3]) [µg/mL],MIC (Sporothrix schenckii) [µg/mL],T/C (Rattus norvegicus [4]) [%],Survivors (Rattus norvegicus [5])
Clc1ccc(COC(Cn2ccnc2)c2ccc(Cl)cc2Cl)c(Cl)c1 (stereo unspecified) [MICONAZOLE],25,≤ 0.78,12.5,≤ 0.78,12.5,,,,,
NYSTATIN,7.9,,,,3.9,13.2,,,,
O=C(O)CCSC1=CC(=O)c2c(O)ccc(O)c2C1=O,3.12,3.12,,3.12,,,1.56,,,
O=C1c2sc3nccn3c2C(=O)c2c(O)ccc(O)c21,25,25,,25,< 12.5,,,< 12.5,,
CC1=CC(=O)c2c(O)ccc(O)c2C1=O,,,,,,,,,23,4
O=C1c2sc3nccn3c2C(=O)c2c(Cl)ccc(O)c21,25,6.25,3.1,6.25,6.25,,,,,
O=C1C(CO)=C(Sc2ccccc2)C(=O)c2ccccc21,25,1.56,< 0.78,1.56,1.56,,,,,
C[C@@H]1[C@H](O)[C@@H](C)/C=C/C=C/C=C/C=C/C=C/C=C/C=C/[C@H](O[C@@H]2O[C@H](C)[C@@H](O)[C@H](N)[C@@H]2O)C[C@@H]2O[C@](O)(C[C@@H](O)C[C@@H](O)[C@H](O)CC[C@@H](O)C[C@@H](O)CC(=O)O[C@H]1C)C[C@H](O)[C@H]2C(=O)O [AMPHOTERICIN B],0.39,1.56,,1.56,0.78,,,,,
O=C1C=CC(=O)c2c(O)ccc(O)c21 [NAPHTHAZALIN],,,,,,,,,37,3 µg/mL
O=C1C=C(Sc2ccccc2)C(=O)c2ccccc21,12.5,< 0.98,25,< 0.78,1.56,,,,,
O=C1c2ccccc2C(=O)c2c1sc1nccn21,50,25,25,25,12.5,,,25,,
